Assay results as given in PubChem BioAssay (NCI).
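Results reflect a 48-hour exposure of cells in 96-well plates to compound at five concentrations. Here, GI50 denotes the concentration required for 50% inhibition of growth. TGI is the concentration that stops growth completely.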

Experiments:
Assay in all cases: inhibition of tumour cell growth, NCI panel, 48 h
786-0 renal = test system: 786-0 renal
A498 renal = test system: A498 renal
A549 NSCLC = test system: A549 NSCLC
ACHN renal = test system: ACHN renal
BT-549 breast = test system: BT-549 breast
CAKI-1 renal = test system: CAKI-1 renal
CCRF-CEM leukemia = test system: CCRF-CEM leukemia
COLO 205 colon = test system: COLO 205 colon
DU-145 prostate = test system: DU-145 prostate
EKVX NSCLC = test system: EKVX NSCLC
HCC-2998 colon = test system: HCC-2998 colon
HCT-116 colon = test system: HCT-116 colon
HCT-15 colon = test system: HCT-15 colon
HL-60(TB) leukemia = test system: HL-60(TB) leukemia
HOP-62 NSCLC = test system: HOP-62 NSCLC
HOP-92 NSCLC = test system: HOP-92 NSCLC
HS 578T breast = test system: HS 578T breast
HT29 colon = test system: HT29 colon
IGROV1 ovarian = test system: IGROV1 ovarian
K-562 leukemia = test system: K-562 leukemia
KM12 colon = test system: KM12 colon
LOX IMVI melanoma = test system: LOX IMVI melanoma
M14 melanoma = test system: M14 melanoma
MALME-3M melanoma = test system: MALME-3M melanoma
MCF7 breast = test system: MCF7 breast
MDA-MB-231 breast = test system: MDA-MB-231 breast
MOLT-4 leukemia = test system: MOLT-4 leukemia
NCI-H226 lung = test system: NCI-H226 lung
NCI-H23 lung = test system: NCI-H23 lung
NCI-H460 lung = test system: NCI-H460 lung
NCI-H522 lung = test system: NCI-H522 lung
NCI/ADR-RES ovarian = test system: NCI/ADR-RES ovarian
OVCAR-3 ovarian = test system: OVCAR-3 ovarian
OVCAR-4 ovarian = test system: OVCAR-4 ovarian
OVCAR-5 ovarian = test system: OVCAR-5 ovarian
OVCAR-8 ovarian = test system: OVCAR-8 ovarian
PC-3 prostate = test system: PC-3 prostate
RPMI-8226 leukemia = test system: RPMI-8226 leukemia
RXF 393 renal = test system: RXF 393 renal
SF-268 CNS = test system: SF-268 CNS
SF-295 CNS = test system: SF-295 CNS
SF-539 CNS = test system: SF-539 CNS
SK-MEL-2 melanoma = test system: SK-MEL-2 melanoma
SK-MEL-28 melanoma = test system: SK-MEL-28 melanoma
SK-MEL-5 melanoma = test system: SK-MEL-5 melanoma
SK-OV-3 ovarian = test system: SK-OV-3 ovarian
SN12C renal = test system: SN12C renal
SNB-19 CNS = test system: SNB-19 CNS
SNB-75 CNS = test system: SNB-75 CNS
SR leukemia = test system: SR leukemia
SW-620 colon = test system: SW-620 colon
TK-10 renal = test system: TK-10 renal
U251 CNS = test system: U251 CNS
UACC-257 melanoma = test system: UACC-257 melanoma
UO-31 renal = test system: UO-31 renal

**Q.** Which GI50 (786-0 renal) does the source give for COc1cccc2cc(N(C)c3ncnc4ccccc34)ccc12 here?
**A.** < 0.0167 µM

**Q.** And the TGI (786-0 renal)?
**A.** 5.9 µM

**Q.** What about the GI50 (A498 renal) of the same molecule?
**A.** < 0.01 µM

**Q.** And the TGI (A498 renal)?
**A.** 11 µM

**Q.** And the GI50 (A549 NSCLC)?
**A.** < 0.01 µM

**Q.** And the TGI (A549 NSCLC)?
**A.** 9.11 µM

**Q.** What about the GI50 (ACHN renal) of the same molecule?
**A.** < 0.01 µM

**Q.** What about the TGI (ACHN renal) of the same molecule?
**A.** 7.52 µM

**Q.** What about the GI50 (BT-549 breast) of the same molecule?
**A.** 0.0185 µM

**Q.** And the TGI (BT-549 breast)?
**A.** 6.64 µM

**Q.** What about the GI50 (CAKI-1 renal) of the same molecule?
**A.** < 0.01 µM

**Q.** And the TGI (CAKI-1 renal)?
**A.** 12.3 µM

**Q.** What about the GI50 (CCRF-CEM leukemia) of the same molecule?
**A.** < 0.0147 µM

**Q.** What about the TGI (CCRF-CEM leukemia) of the same molecule?
**A.** 17.8 µM

**Q.** And the GI50 (COLO 205 colon)?
**A.** < 0.01 µM

**Q.** And the TGI (COLO 205 colon)?
**A.** 0.0659 µM

**Q.** What about the GI50 (DU-145 prostate) of the same molecule?
**A.** < 0.01 µM

**Q.** What about the TGI (DU-145 prostate) of the same molecule?
**A.** 10.4 µM

**Q.** And the GI50 (EKVX NSCLC)?
**A.** 0.0772 µM

**Q.** What about the TGI (EKVX NSCLC) of the same molecule?
**A.** 13.6 µM

**Q.** And the GI50 (HCC-2998 colon)?
**A.** 0.0211 µM

**Q.** What about the TGI (HCC-2998 colon) of the same molecule?
**A.** 5.43 µM

**Q.** What about the GI50 (HCT-116 colon) of the same molecule?
**A.** < 0.01 µM

**Q.** And the TGI (HCT-116 colon)?
**A.** 0.521 µM

**Q.** And the GI50 (HCT-15 colon)?
**A.** < 0.01 µM

**Q.** And the TGI (HCT-15 colon)?
**A.** 12.8 µM

**Q.** What about the GI50 (HL-60(TB) leukemia) of the same molecule?
**A.** < 0.01 µM

**Q.** What about the TGI (HL-60(TB) leukemia) of the same molecule?
**A.** 0.0486 µM

**Q.** What about the GI50 (HOP-62 NSCLC) of the same molecule?
**A.** < 0.01 µM

**Q.** What about the TGI (HOP-62 NSCLC) of the same molecule?
**A.** 15.4 µM

**Q.** What about the GI50 (HOP-92 NSCLC) of the same molecule?
**A.** < 0.01 µM

**Q.** What about the TGI (HOP-92 NSCLC) of the same molecule?
**A.** 1.03 µM

**Q.** And the GI50 (HS 578T breast)?
**A.** < 0.01 µM

**Q.** What about the TGI (HS 578T breast) of the same molecule?
**A.** 20.4 µM

**Q.** And the GI50 (HT29 colon)?
**A.** < 0.01 µM

**Q.** And the TGI (HT29 colon)?
**A.** 11.8 µM

**Q.** And the GI50 (IGROV1 ovarian)?
**A.** < 0.01 µM

**Q.** What about the TGI (IGROV1 ovarian) of the same molecule?
**A.** 12.2 µM

**Q.** What about the GI50 (K-562 leukemia) of the same molecule?
**A.** < 0.01 µM

**Q.** What about the TGI (K-562 leukemia) of the same molecule?
**A.** 25.1 µM

**Q.** And the GI50 (KM12 colon)?
**A.** < 0.01 µM

**Q.** What about the TGI (KM12 colon) of the same molecule?
**A.** 1.07 µM

**Q.** What about the GI50 (LOX IMVI melanoma) of the same molecule?
**A.** < 0.0123 µM

**Q.** What about the TGI (LOX IMVI melanoma) of the same molecule?
**A.** 13.5 µM

**Q.** What about the GI50 (M14 melanoma) of the same molecule?
**A.** < 0.01 µM

**Q.** What about the TGI (M14 melanoma) of the same molecule?
**A.** 13.7 µM

**Q.** What about the GI50 (MALME-3M melanoma) of the same molecule?
**A.** < 0.0484 µM

**Q.** What about the TGI (MALME-3M melanoma) of the same molecule?
**A.** 10.1 µM

**Q.** What about the GI50 (MCF7 breast) of the same molecule?
**A.** < 0.01 µM

**Q.** What about the TGI (MCF7 breast) of the same molecule?
**A.** 12.3 µM

**Q.** And the GI50 (MDA-MB-231 breast)?
**A.** 0.025 µM

**Q.** And the TGI (MDA-MB-231 breast)?
**A.** 13 µM

**Q.** And the GI50 (MOLT-4 leukemia)?
**A.** 0.0237 µM

**Q.** What about the TGI (MOLT-4 leukemia) of the same molecule?
**A.** 15.2 µM

**Q.** What about the GI50 (NCI-H226 lung) of the same molecule?
**A.** < 0.01 µM

**Q.** And the TGI (NCI-H226 lung)?
**A.** 0.827 µM

**Q.** And the GI50 (NCI-H23 lung)?
**A.** < 0.0156 µM

**Q.** What about the TGI (NCI-H23 lung) of the same molecule?
**A.** 6.26 µM

**Q.** And the GI50 (NCI-H460 lung)?
**A.** < 0.01 µM

**Q.** What about the TGI (NCI-H460 lung) of the same molecule?
**A.** 10.8 µM

**Q.** And the GI50 (NCI-H522 lung)?
**A.** < 0.01 µM

**Q.** What about the TGI (NCI-H522 lung) of the same molecule?
**A.** 3.12 µM

**Q.** And the GI50 (NCI/ADR-RES ovarian)?
**A.** < 0.01 µM

**Q.** What about the TGI (NCI/ADR-RES ovarian) of the same molecule?
**A.** 0.629 µM

**Q.** What about the GI50 (OVCAR-3 ovarian) of the same molecule?
**A.** < 0.01 µM

**Q.** What about the TGI (OVCAR-3 ovarian) of the same molecule?
**A.** < 0.0107 µM

**Q.** And the GI50 (OVCAR-4 ovarian)?
**A.** < 0.0161 µM

**Q.** What about the TGI (OVCAR-4 ovarian) of the same molecule?
**A.** 13.5 µM

**Q.** And the GI50 (OVCAR-5 ovarian)?
**A.** 0.0319 µM

**Q.** What about the TGI (OVCAR-5 ovarian) of the same molecule?
**A.** 17.4 µM

**Q.** And the GI50 (OVCAR-8 ovarian)?
**A.** 0.0172 µM

**Q.** What about the TGI (OVCAR-8 ovarian) of the same molecule?
**A.** 32.6 µM

**Q.** What about the GI50 (PC-3 prostate) of the same molecule?
**A.** < 0.01 µM

**Q.** And the TGI (PC-3 prostate)?
**A.** 15.6 µM

**Q.** And the TGI (RPMI-8226 leukemia)?
**A.** 4.99 µM

**Q.** And the GI50 (RXF 393 renal)?
**A.** < 0.01 µM

**Q.** And the TGI (RXF 393 renal)?
**A.** 20 µM

**Q.** What about the GI50 (SF-268 CNS) of the same molecule?
**A.** 0.0221 µM

**Q.** And the TGI (SF-268 CNS)?
**A.** 14.1 µM

**Q.** And the GI50 (SF-295 CNS)?
**A.** < 0.01 µM

**Q.** What about the TGI (SF-295 CNS) of the same molecule?
**A.** 11.4 µM

**Q.** And the GI50 (SF-539 CNS)?
**A.** < 0.01 µM

**Q.** And the GI50 (SK-MEL-2 melanoma)?
**A.** 0.142 µM

**Q.** And the TGI (SK-MEL-2 melanoma)?
**A.** 14.4 µM

**Q.** And the GI50 (SK-MEL-28 melanoma)?
**A.** 1.35 µM

**Q.** And the TGI (SK-MEL-28 melanoma)?
**A.** 13.8 µM

**Q.** What about the GI50 (SK-MEL-5 melanoma) of the same molecule?
**A.** < 0.01 µM

**Q.** What about the TGI (SK-MEL-5 melanoma) of the same molecule?
**A.** 0.0374 µM

**Q.** What about the GI50 (SK-OV-3 ovarian) of the same molecule?
**A.** < 0.01 µM

**Q.** What about the TGI (SK-OV-3 ovarian) of the same molecule?
**A.** 18.4 µM

**Q.** What about the GI50 (SN12C renal) of the same molecule?
**A.** < 0.0159 µM

**Q.** What about the TGI (SN12C renal) of the same molecule?
**A.** 13.3 µM

**Q.** And the GI50 (SNB-19 CNS)?
**A.** < 0.0132 µM

**Q.** And the TGI (SNB-19 CNS)?
**A.** 18.4 µM

**Q.** What about the GI50 (SNB-75 CNS) of the same molecule?
**A.** < 0.0105 µM

**Q.** What about the TGI (SNB-75 CNS) of the same molecule?
**A.** 13 µM

**Q.** And the GI50 (SR leukemia)?
**A.** < 0.01 µM

**Q.** What about the TGI (SR leukemia) of the same molecule?
**A.** 24.8 µM

**Q.** And the GI50 (SW-620 colon)?
**A.** < 0.01 µM

**Q.** What about the TGI (SW-620 colon) of the same molecule?
**A.** 17.6 µM

**Q.** What about the TGI (TK-10 renal) of the same molecule?
**A.** 16.9 µM

**Q.** And the GI50 (U251 CNS)?
**A.** < 0.01 µM

**Q.** What about the TGI (U251 CNS) of the same molecule?
**A.** 11.6 µM

**Q.** What about the GI50 (UACC-257 melanoma) of the same molecule?
**A.** 0.283 µM

**Q.** And the TGI (UACC-257 melanoma)?
**A.** 10.6 µM

**Q.** And the GI50 (UO-31 renal)?
**A.** < 0.0287 µM

**Q.** What about the TGI (UO-31 renal) of the same molecule?
**A.** 13.8 µM
